Assay results from patent EP0707593B1, “ORALLY ADMINISTERABLE ESTERS OF 14 ALPHA,15 ALPHA-METHYLENE-OESTRADIOL WITH AN OESTROGENIC ACTION” (Jenapharm GmbH & Co. KG, priority 1993, dated 1995).

Test system: adulte ovarektomierte Ratten
Assay: Uterus wet weight after single oral application in adult ovariectomized rats (oral estrogenic effect, dose-response analysis)
Type: in vivo
Details: suspended in Myrj, 3-100 µg/T (dose refers to steroid part), uterus wet weight on day 4, Abbildungen 1 und 2
From the text: Als Vergleiche dienten Ethinylestradiol (EE) und 14α,15α-Methylen-estra-1,3,5(10)-trien-3,17β-diol (Code: J824) Die Ermittlung der Uterusfeuchtmassen nach einmaliger oraler Substanzapplikation sowie die Dosis-Wirkungsanalysen der Substanzen wurde zur Bemessung einer Estrogenwirkung herangezogen.
Sowohl Uterus als auch Vagina zeigen bei ovarektomierten Ratten eine von der Estrogendosis abhängige Gewichtszunahme. Diese ist auf eine Proliferation der Schleimhäute, erhöhte Proteinsynthese, aber auch auf eine Wassereinlagerung zurückzuführen. Für die der Erfindung zu Grunde liegenden Untersuchungen wurden adulte ovarektomierte Ratten eingesetzt. In einer kontrollierten Studie wurden Ester des 14α,15α-Methylen-estradiols auf estrogene Wirkung bei oraler Applikation gegen Ethinylestradiol(EE) und 14α,15α-Methylen-estradiol (J 824) geprüft. Die angegebenen Dosierungen beziehen sich auf den Steroidkern der Moleküle. Die Testsubstanzen wurden einmalig oral appliziert. Als Parameter einer Estrogenwirkung wurden am 4. Tag des Versuches die Uterusgewichte ermittelt (Feuchtgewichte).
Weibliche Ratten [Stamm: BOR:WISW (SPF/Cpb)], Körpermasse zu Versuchsbeginn 200 - 240 g wurden ovarektomiert und 10 Tage nach diesem Eingriff randomisiert den Versuchsgruppen zugeordnet. Dann erfolgte die einmalige orale Applikation (Tag 1) der Prüfsubstanzen. Am 4. […]

SMILES: C[C@]12CC[C@@H]3c4ccc(O)cc4CC[C@H]3[C@@]13C[C@H]3C[C@@H]2O [J824, 14α,15α-Methylen-estra-1,3,5(10)-trien-3,17β-diol]
- orale Estrogenwirkung (Uterusfeuchtmassen): bessere estrogene Wirkung des J824 gegenüber EE
